Laboratory results: publication PMC2722590, “Production of N-acetyl-D-neuraminic acid using two sequential enzymes overexpressed as double-tagged fusion proteins” (BMC Biotechnology, 2009)

Biological target: T1, GST-GlcNAc 2-epimerase-5D (Synechocystis sp. PCC 6803, UniProt P74124)
T1 construct: gene slr1975; 1209 bp PCR fragment
T1 sequence (P74124 1-391): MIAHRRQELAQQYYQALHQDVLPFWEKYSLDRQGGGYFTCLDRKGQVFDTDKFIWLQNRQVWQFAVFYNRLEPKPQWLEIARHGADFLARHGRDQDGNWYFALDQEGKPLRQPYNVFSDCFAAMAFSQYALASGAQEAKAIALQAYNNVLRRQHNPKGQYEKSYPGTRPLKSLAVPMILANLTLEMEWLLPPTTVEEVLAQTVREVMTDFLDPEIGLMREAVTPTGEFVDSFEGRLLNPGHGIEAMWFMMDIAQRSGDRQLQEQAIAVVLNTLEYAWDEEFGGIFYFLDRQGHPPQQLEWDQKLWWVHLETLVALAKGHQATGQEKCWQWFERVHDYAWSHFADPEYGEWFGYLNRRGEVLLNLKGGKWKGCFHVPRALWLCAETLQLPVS
Test: enzyme inhibition kinetics
Assay type: biochemical
Conditions: read-out: inhibition constant

## CC(=O)C(=O)O [pyruvate]
  Ki: 31 mM
